Experimental data taken from the NIST ThermoML archive (doi:10.1016/j.tca.2007.02.005).
± gives the expanded uncertainty stated by the source.

How the values were obtained:
[1] = Molar enthalpy of transition or fusion; conditions: Crystal; DSC
[2] = Crystal; DTA

## CCn1cc[n+](C)c1.F[P-](F)(F)(F)(F)F [1-ethyl-3-methylimidazolium hexafluorophosphate]
[1]
  Molar enthalpy of transition or fusion: 4.3 ± 0.105 kcal/mol
[2]
  Normal melting temperature: 60.90 ± 1.2 °C

## c1ccc(-c2nc(-c3ccccc3)c(-c3ccccc3)[nH]2)cc1 [2,4,5-triphenyl-1H-imidazole]
[1]
  Molar enthalpy of transition or fusion: 8.92 ± 0.194 kcal/mol
[2]
  Normal melting temperature: 274.60 ± 2.1 °C

## c1ccc(-c2ncc[nH]2)cc1 [2-phenyl-1H-imidazole]
[1]
  Molar enthalpy of transition or fusion: 4.26 ± 0.108 kcal/mol
[2]
  Normal melting temperature: 146.80 ± 2.1 °C

## c1ccc(-c2nc[nH]c2-c2ccccc2)cc1 [4,5-diphenylimidazole]
[1]
  Molar enthalpy of transition or fusion: 7.73 ± 0.17 kcal/mol
[2]
  Normal melting temperature: 231.80 ± 2.1 °C
